# Test results reported in ChEMBL document CHEMBL1134117, “Synthesis of substituted 5[H]phenanthridin-6-ones as potent poly(ADP-ribose)polymerase-1 (PARP1) inhibitors” (Bioorg Med Chem Lett, 2001).
# pIC50: −log10 of the molar value.
# Target: Poly [ADP-ribose] polymerase 1 (Homo sapiens, UniProt P09874)
# Test: Inhibitory concentration against purified recombinant human Poly (ADP-ribose) polymerase 1
# Chain of Poly [ADP-ribose] polymerase 1 (P09874 whole entry): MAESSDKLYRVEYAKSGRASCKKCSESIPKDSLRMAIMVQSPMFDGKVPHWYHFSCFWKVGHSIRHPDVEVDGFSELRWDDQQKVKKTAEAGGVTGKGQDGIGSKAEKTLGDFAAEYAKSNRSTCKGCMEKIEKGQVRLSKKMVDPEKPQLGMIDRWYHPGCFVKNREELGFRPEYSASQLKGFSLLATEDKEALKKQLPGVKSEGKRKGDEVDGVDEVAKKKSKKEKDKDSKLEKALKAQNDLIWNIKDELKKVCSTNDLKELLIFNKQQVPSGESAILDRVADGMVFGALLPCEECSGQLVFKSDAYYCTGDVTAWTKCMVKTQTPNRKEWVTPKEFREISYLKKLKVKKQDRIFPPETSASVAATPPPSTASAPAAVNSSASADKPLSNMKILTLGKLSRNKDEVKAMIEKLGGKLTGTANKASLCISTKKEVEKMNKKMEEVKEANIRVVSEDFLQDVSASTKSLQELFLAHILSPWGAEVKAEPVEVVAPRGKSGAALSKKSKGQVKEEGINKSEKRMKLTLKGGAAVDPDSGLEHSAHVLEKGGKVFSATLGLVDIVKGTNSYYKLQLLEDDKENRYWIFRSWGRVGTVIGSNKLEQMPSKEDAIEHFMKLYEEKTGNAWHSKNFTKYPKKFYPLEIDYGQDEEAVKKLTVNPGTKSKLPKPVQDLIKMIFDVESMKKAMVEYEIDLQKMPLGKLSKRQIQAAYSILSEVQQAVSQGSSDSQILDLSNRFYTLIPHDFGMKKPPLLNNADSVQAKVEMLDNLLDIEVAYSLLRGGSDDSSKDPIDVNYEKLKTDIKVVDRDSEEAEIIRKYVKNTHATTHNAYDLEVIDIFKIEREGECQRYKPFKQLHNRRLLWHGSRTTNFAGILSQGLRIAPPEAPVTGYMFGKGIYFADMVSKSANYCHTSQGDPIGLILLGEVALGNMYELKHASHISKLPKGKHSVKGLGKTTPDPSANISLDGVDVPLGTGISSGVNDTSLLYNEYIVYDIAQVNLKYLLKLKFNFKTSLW
row,Compound,pIC50
1,O=C(O)c1ccc2c(c1)[nH]c(=O)c1ccccc12,7.24
2,Cc1cccc2c(=O)[nH]c3cc(C(F)(F)F)c([N+](=O)[O-])cc3c12,6.87
3,O=C(O)c1cccc2c(O)nc3ccccc3c12,< 4.22
4,O=c1[nH]c2ccccc2c2ccccc12,6.28
5,Nc1cc2[nH]c(=O)c3ccccc3c2cc1N,6.74

# Continued, values first:
row,pIC50,Compound
1,7.04,Cc1cccc2c(O)nc3cc(F)ccc3c12
2,6.74,Nc1ccc2[nH]c(=O)c3ccccc3c2c1
3,8.00,O=c1[nH]c2cc(S(=O)(=O)O)ccc2c2ccc(F)cc12
4,6.81,O=c1[nH]c2ccc([N+](=O)[O-])cc2c2ccccc12
5,< 4.00,O=S(=O)(O)c1ccc2c(c1)nc(O)c1cc(S(=O)(=O)O)ccc12
